Measurements from patent US9670463B2, “Inhibition and enhancement of reprogramming by chromatin modifying enzymes” (Children's Medical Center Corporation, priority 2011, dated 2017).

Columns and labels:
[1] = tested on: iPS-derived secondary MEFs; assay: Reprogramming of inducible iPS-derived secondary MEFs, AP+ colonies; format: cell-based, mouse; details: doxycycline, iDot1L 10 um
Oct4-GFP MEFs = assay: Reprogramming of OSKM transduced Oct4-GFP MEFs, AP+ colonies; format: cell-based, mouse; details: iDot1L 10 um
Description: It was assessed whether these observations can be extended to the murine system. It was observed that, similar to human fibroblasts, iDot1L treatment led to 3-fold enhancement of reprogramming of Oct4-GFP MEFs (FIG. 3D). […] Data correspond to the average and s.d.; n=4. *P<0.001 compared untreated MEFs. Representative AP-stained wells and GFP-positive iPS colonies derived from each condition are shown in the lower panel.

H3K79 methylation = assay: Total H3K79me2 levels in fibroblasts by western blotting; format: cell-based, human; details: 1 uM to 10 uM concentration range, fibroblasts treated 5 days
From the text: In addition to the shRNA mediated knockdown of Dot1L, a small molecule inhibitor of Dot1L catalytic activity was used to further validate the findings^15. […] Data correspond to the average and s.d.; n=3. *P<0.001 compared untreated fibroblasts.

H3K79me2 = assay: ChIP-seq for H3K79me2 on OSKM expressing fibroblasts; format: cell-based, human; details: iDot1L 10 uM; 6 days after OSKM
Description: ChIP-seq was performed as described with slight modifications^25. 300 000 cells were fixed at room temperature in PBS 1% formalin (v/v) for 10 minutes with gentle agitations. Fixation was stopped by the addition of glycine (125 mM final concentration) and agitation for 5 min at room temperature. Fixed cells were washed twice in ice-cold PBS, resuspended in 100 ul of SDS lysis buffer (1% SDS, 10 mM EDTA, 50 mM Tris-HCl, pH 8.1). Chromatin was sheared by sonication to about 100-500 bp fragments using bioruptor (diagenode, Denville, N.J.) and diluted tenfold with dilution buffer (0.01% SDS, 1.1% Triton-X100, 1.2 mM EDTA, 16.7 mM Tris-HCl, pH 8.1, 167 mM NaCl). Antibodies against specific histone modifications was added to sonicated chromatin solution and incubated at 4 degree overnight with gentle agitation. The antibodies used were anti-H3K27me3 (Millipore 07-449) and anti-H3K79me2 (abcam 3594). Immune complexes were collected by incubation with 20 ul of Protein A/G agarose beads (Millipore) for an hour at 4 degree with gentle agitation. […]

dH1f cells = assay: Reprogramming assay, Tra-1-60+ iPSC colonies from dH1f fibroblasts; format: cell-based, human
Description: dH1f cells were first infected with shRNA viruses at high MOI to ensure all cells received at least one vector (Gauged by puromycin resistance of parallel infected wells). 25,000 shRNA-infected dH1f cells were then plated per well in 12-well plates and infected overnight with either retroviral (MOI 2.5) 7 or lentiviral (Addgene #21162, 21164; 100-200 μl supernatant)29 reprogramming factors. For 2-factor reprogramming, Oct4 and Sox2 viruses were used at an MOI of 5. 6 days later, cells were trypsinized and re-plated 1:4 to 1:6 onto 6-well plates. Medium was changed to hES medium daily until Day 21 when plates were fixed. Small molecule inhibitor of Dot1L, EPZ004777 (a gift from Epizyme, Inc., Cambridge, Mass.) was dissolved in DMSO as a 10 mM stock and was added at the indicated concentrations. For Dot1L rescue experiments, an MSCV-based retroviral vector encoding human Dot1L with or without mutations in the SAM binding site (gifts of Y. Zhang) were mutagenized at the shRNA target site using QuikChange II XL Site-Directed Mutagenesis Kit (Agilent Technologies). In certain experiments, Nanog and Lin28 expression was achieved using lentivirus (Addgene #21163). IMR-90 and MRC5 human diploid fibroblasts were purchased from ATCC and 50000 cells were used in reprogramming experiments. Statistical analysis was performed using a Student's t-test.
Immunostaining of reprogramming plates were performed as described^8. Briefly, cells were fixed with 4% p-formaldehyde and stained with biotin-anti-Tra-1-60 (eBioscience, #13-8863-82, 1:250) and streptavidin horseradish peroxidase (Biolegend, #405210, 1:500) diluted in PBS (3%), FCS (0.3%) Triton X-100. Staining was developed with the Vector labs DAB kit (#SK-4100), and iPSC colonies quantified with ImageJ software. For the characterization of shDot1l-iPS cells, single colonies were put onto MEF coated 96-well plates. The plates were fixed for 20 min with 4% p-formaldehyde/PBS (+/+), washed several times with PBS (+/+) and incubated overnight at 4° C. with primary antibody and Hoechst diluted in 3% donkey serum/3% BSA Fraction VII/0.01% Triton X-100/PBS (+/+); Hoechst, Invitrogen #H3570 (1:20,000), Tra-1-81/A488 (BD #560174), SSEA-4/A647 (BD #560219), Tra-1-60/A647 (BD #560122), Nanog, rabbit polyclonal (Abcam #ab21624), Oct4, rabbit polyclonal (Abcam #ab19857). For Nanog and Oct4, donkey anti-rabbit IgG/A555 (Molecular Probes #A31572) secondary antibody was used. After several washes with PBS (+/+), images were acquired using a BD Pathway 435 imager equipped with a ×10 objective.

[2] = iDot1L 10 uM, OSKM, Tra-1-60+ colonies at 21 days

CC(C)N(CCCNC(=O)Nc1ccc(C(C)(C)C)cc1)C[C@H]1O[C@@H](n2ccc3c(N)ncnc32)[C@H](O)[C@@H]1O.Cl [EPZ004777]
reprogramming efficiency of secondary MEFs [1]: increased reprogramming efficiency | enhancement of reprogramming of Oct4-GFP MEFs (Oct4-GFP MEFs): 3 fold | H3K79 methylation (H3K79 methylation): abrogated H3K79 methylation robustly | K79me2 levels on genes (H3K79me2): reduced on almost all genes | enhancement of reprogramming of human fibroblasts (dH1f cells; OSKM, dH1f cells treated for 21 days, relative to untreated): 3-4 fold | reprogramming efficiency, inhibitor combined with Dot1L knockdown (dH1f cells; iDot1L 10 uM plus Dot1L shRNA, OSKM, 21 days): did not result in a further increase of reprogramming efficiency | reprogramming, pretreatment for 5 days prior to OSKM transduction (dH1f cells; [2]): no effect | reprogramming, treatment in the first or the second week (dH1f cells; [2]): sufficient to enhance reprogramming | reprogramming in the absence of Klf4, c-Myc or both (dH1f cells; iDot1L 10 uM, Tra-1-60 staining 21 days after reprogramming): allowed reprogramming in the absence of either Klf4 or Myc and was able to replace both of these exogenous factors
